One compound from publication PMC11452294, “Periplasmic binding proteins Bug69 and Bug27 from Bordetella pertussis are in vitro high‐affinity quinolinate binders with a potential role in NAD biosynthesis” (FEBS Open Bio, 2024) can be followed below.

The target of one assay is T1, Bug69 (Bordetella pertussis, UniProt Q7VUA0).
T1 construct: gene BP3219; mature periplasmic domain, signal peptide omitted, pET28c NcoI/XhoI, C-terminal His tag kept; E. coli BL21(DE3); denatured and renatured to remove endogenous ligands
T1 sequence (Q7VUA0 32-332): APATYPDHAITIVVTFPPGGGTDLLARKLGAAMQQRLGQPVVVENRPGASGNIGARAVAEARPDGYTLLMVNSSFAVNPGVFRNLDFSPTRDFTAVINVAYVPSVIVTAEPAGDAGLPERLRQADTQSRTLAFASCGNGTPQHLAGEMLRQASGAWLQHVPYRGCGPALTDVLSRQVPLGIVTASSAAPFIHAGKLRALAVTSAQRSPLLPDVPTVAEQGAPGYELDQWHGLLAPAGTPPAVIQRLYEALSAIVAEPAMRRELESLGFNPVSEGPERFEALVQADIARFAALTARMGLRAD
Description: intrinsic tryptophan fluorescence quenching titration. The conditions noted are these: 20 °C; 0.1 μM protein; excitation 295 nm, fit at 328 nm. It counts as binding.

The target in a further assay is T2, Bug27 (Bordetella pertussis, UniProt Q7W019).
T2 construct: gene BP0682; mature periplasmic domain, signal peptide omitted, pET28c NcoI/HindIII, C-terminal His tag kept; E. coli BL21(DE3); denatured and renatured to remove endogenous ligands
T2 sequence (Q7W019 30-330): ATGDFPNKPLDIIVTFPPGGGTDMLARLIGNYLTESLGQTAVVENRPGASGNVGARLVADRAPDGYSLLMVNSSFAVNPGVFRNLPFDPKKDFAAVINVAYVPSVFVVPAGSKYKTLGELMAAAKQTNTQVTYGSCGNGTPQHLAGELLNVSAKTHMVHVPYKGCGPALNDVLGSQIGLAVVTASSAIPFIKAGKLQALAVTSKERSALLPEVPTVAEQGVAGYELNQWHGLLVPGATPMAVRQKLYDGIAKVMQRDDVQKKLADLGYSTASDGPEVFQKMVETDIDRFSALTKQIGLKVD
Described as above. It counts as binding.

The term Kd denotes the equilibrium constant for the complex coming apart. As for `O=C(O)c1cccnc1C(=O)O` [quinolinate], the values for the Kd at Bug69 and at Bug27 were 70 ± 22 nM and 136 ± 28 nM, respectively.
